Here are results for 17 compounds from patent publication US10888567B2, “Inhibitors of tryptophan dioxygenases (IDO1 and TDO) and their use in therapy” (AUCKLAND UNISERVICES LIMITED, priority 2014, dated 2021).

In test [1] the target is Recombinant human IDO1 (rhIDO1) (Homo sapiens (Human), UniProt P14902). Briefly: Enzymatic assay for IDO1 activity. To be noted: rhIDO1 9 nM, 80 μM TRP, 37° C. 30 min. Format: biochemical. As for the experimental part:
Recombinant human IDO1 (rhIDO1) was expressed and purified from cultures of EC538 strain of E. coli transformed with pREP4 and pQE9-IDO plasmid. Reaction mixes were set up in 384-well microplates containing 50 mM phosphate buffer, 10 mM ascorbic, 10 μM methylene blue, 100 μg/mL catalase, 80 μM TRP, 0.01% Tween 20 (v/v) mixed with rhIDO1 (15 μL) at a final concentration of 9 nM in a total volume of 30 μL assay medium. The plates were incubated at 37° C. for 30 min, and the enzymatic reaction was terminated by adding piperidine (200 mM) and heated at 65° C. for 20 min. Fluorescence intensity was read at λex 400 nm and λem 500 nm. Test compounds were dissolved in 100% DMSO and pre-diluted in assay medium prior to adding rhIDO1. IDO1 inhibition (%) was calculated as
[formula] All experiments were carried out in triplicates, and statistical Analyses were conducted in Prism v5 (Graphpad Software, Inc., La Jolla, Calif., USA). Cell-Based Assay for IDO1 Inhibition

Test [2] deals with Lewis Lung carcinoma cells transfected to express IDO1 (LLTC-hIDO1). Briefly: MTT cell viability in the cellular IDO1 assay. Type of test: cell-based. To be noted: same experiment as cellular IDO1 assay. As for the experimental part:
The viability of the cells in each well in the same experiment was determined using the 3-(4,5-dimethylthiazolyl-2-yl)-2,5-diphenyltetrazolium bromide (MTT) colourimetric assay. After the removal of the supernatant for determination of IDO1 inhibition, the cells were incubated with MTT (500 μg/mL) until crystal formation was observed. […] DMSO (100 μL/well) was added to dissolve the crystals and then the absorbance in each well was measured at 570 nm. Cell viability in each well was expressed as a percentage of untreated controls. Triplicate cultures were used for all experiments unless stated otherwise.

In test [3] the target is human IDO1 (LLTC-hIDO1 cells) (Homo sapiens, UniProt P14902). Briefly: Cell-based assay for IDO1 inhibition (kynurenine in supernatant). To be noted: IDO1-transfected Lewis Lung carcinoma cells, 24 h; read-out: Cellular IC50. As for the experimental part: Culture supernatant from each well was then transferred into a fresh, flat-bottomed 96-well plate, mixed with trichloroacetic acid (10% final concentration) and incubated for 20 min at 60° C. […] The absorbance of each well was read at 480 nm, and the concentration that inhibited 50% cellular enzyme activity was calculated.

Molecules are shown by their SMILES.

Chain of Recombinant human IDO1 (rhIDO1) (P14902 whole entry): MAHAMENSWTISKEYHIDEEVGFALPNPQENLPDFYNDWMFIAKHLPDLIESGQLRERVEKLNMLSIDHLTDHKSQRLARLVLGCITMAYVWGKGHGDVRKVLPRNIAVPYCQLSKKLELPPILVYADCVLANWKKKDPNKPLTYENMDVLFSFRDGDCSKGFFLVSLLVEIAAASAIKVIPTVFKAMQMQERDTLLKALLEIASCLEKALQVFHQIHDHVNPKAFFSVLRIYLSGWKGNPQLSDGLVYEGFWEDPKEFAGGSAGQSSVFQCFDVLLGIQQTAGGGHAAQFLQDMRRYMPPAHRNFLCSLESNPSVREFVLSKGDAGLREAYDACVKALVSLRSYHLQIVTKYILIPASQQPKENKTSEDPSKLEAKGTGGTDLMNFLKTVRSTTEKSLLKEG

As to `Cc1cc2c(N)noc2nc1C` [Compound 45, 5,6-Dimethylisoxazolo[5,4-b]pyridin-3-amine], the IC50 was more than 100 µM in test [1], more than 100 µM in test [2] and 10 to 100 µM in test [3].

As to `Nc1noc2nc3c(cc12)CCCC3` [Compound 10, 5,6,7,8-Tetrahydroisoxazolo[5,4-b]quinolin-3-amine], the IC50 in test [1] is more than 100 µM; in test [2] it was more than 100 µM; in test [3], 1 to 10 µM.

`Nc1noc2nc(C(F)(F)F)ccc12` [Compound 47, 6-(Trifluoromethyl)isoxazolo[5,4-b]pyridin-3-amine]: the 50% inhibitory concentration (IC50) in test [1] was less than 1 µM; in test [2], more than 100 µM; in test [3], 1 to 10 µM.

As to `CS(=O)(=O)c1ccc2c(N)noc2n1` [Compound 80, 6-(methylsulfonyl)isoxazolo[5,4-b]pyridin-3-amine], the results for the IC50 in test [1], in test [2] and in test [3] were more than 100 µM, more than 100 µM and 10 to 100 µM, respectively.

As for `Nc1noc2ncccc12` [Compound 2, Isoxazolo[5,4-b]pyridin-3-amine], the IC50 in test [1] was more than 100 µM; in test [2] it was more than 100 µM; in test [3] it was 10 to 100 µM.

As to `Nc1noc2nc(-c3cccs3)ccc12` [Compound 74, 6-(2-Thienyl)isoxazolo[5,4-b]pyridin-3-amine], the IC50 in test [1] was more than 100 µM; in test [2] it was more than 100 µM; in test [3], 1 to 10 µM.

On to `CSc1ncc2c(N)noc2n1` [Compound 63, 6-(Methylthio)isoxazolo[5,4-d]pyrimidin-3-amine], for which the IC50 was more than 100 µM in test [1], more than 100 µM in test [2] and 10 to 100 µM in test [3].

Take `Nc1noc2nc3ccccc3cc12` [Compound 9, Isoxazolo[5,4-b]quinolin-3-amine]: the IC50 in test [1] was 10 to 100 µM; in test [2], more than 100 µM; in test [3], 1 to 10 µM.

Take `COc1cccc(Nc2ccc3c(N)noc3n2)c1` [Compound 95, N^6-(3-Methoxyphenyl)isoxazolo[5,4-b]pyridine-3,6-diamine]: the values for the IC50 in test [1], in test [2] and in test [3] were more than 100 µM, more than 100 µM and 1 to 10 µM, respectively.

Regarding `COc1ccc(-c2ccc3c(N)noc3n2)cc1` [Compound 70, 6-(4-Methoxyphenyl)isoxazolo[5,4-b]pyridin-3-amine], the half-inhibitory concentration (IC50) in test [1], in test [2] and in test [3] was more than 100 µM in each case.

`Nc1noc2ncncc12` [Compound 12, Isoxazolo[5,4-d]pyrimidin-3-amine]: the IC50 was more than 100 µM in test [1], more than 100 µM in test [2] and 1 to 10 µM in test [3].

Take `Cn1nccc1-c1ccc2c(N)noc2n1` [Compound 75, 6-(1-Methyl-1H-pyrazol-5-yl)isoxazolo[5,4-b]pyridin-3-amine]: the concentration for half-maximal inhibition (IC50) in test [1], in test [2] and in test [3] was more than 100 µM throughout.

With `Cc1cc(C(F)(F)F)c2c(N)noc2n1` [Compound 46, 6-Methyl-4-(trifluoromethyl)isoxazolo[5,4-b]pyridin-3-amine], the IC50 was more than 100 µM in test [1], more than 100 µM in test [2] and 10 to 100 µM in test [3].

Regarding `COc1ccccc1Oc1ccc2c(N)noc2n1` [Compound 90, 6-(2-Methoxyphenoxy)isoxazolo[5,4-b]pyridin-3-amine], the IC50 in test [1] is more than 100 µM; in test [2], more than 100 µM; in test [3], 10 to 100 µM.

`Cc1cnc2onc(N)c2c1` [Compound 44, 5-Methylisoxazolo[5,4-b]pyridin-3-amine]: the IC50 in test [1] was more than 100 µM; in test [2], more than 100 µM; in test [3] it was 10 to 100 µM.

On to `Nc1noc2nc(-c3ccc(Cl)cc3Cl)ccc12` [Compound 72, 6-(2,4-Dichlorophenyl)isoxazolo[5,4-b]pyridin-3-amine], for which the 50% inhibitory concentration (IC50) in test [1], in test [2] and in test [3] was more than 100 µM throughout.

Consider `Nc1noc2ncc(Cl)cc12` [Compound 8, 5-Chloroisoxazolo[5,4-b]pyridin-3-amine], for which the values for the IC50 in test [1], in test [2] and in test [3] were 10 to 100 µM, more than 100 µM and less than 1 µM, respectively.

Broadly, the IC50 is the concentration at which inhibition is half-maximal.
